{"source": "ChEMBL document CHEMBL5113380", "about": "“Functionalized quinoxalinones as privileged structures with broad-ranging pharmacological activities” (Eur J Med Chem, 2022)", "key": {"Pseudomonas aeruginosa": {"test_system": "Pseudomonas aeruginosa", "test": "Antibacterial activity against Pseudomonas aeruginosa", "type": "functional"}, "[1]": {"molecular_target": "T1, Glutamate receptor ionotropic AMPA (Homo sapiens, UniProt P42261+P42262+P42263+P48058)", "test": "Displacement of [3H]AMPA from AMPA receptor (unknown origin)", "type": "protein-complex assay"}, "[2]": {"molecular_target": "Glutamate receptor ionotropic, kainate 2 (Homo sapiens, UniProt Q13002)", "sequence (Q13002 whole entry)": "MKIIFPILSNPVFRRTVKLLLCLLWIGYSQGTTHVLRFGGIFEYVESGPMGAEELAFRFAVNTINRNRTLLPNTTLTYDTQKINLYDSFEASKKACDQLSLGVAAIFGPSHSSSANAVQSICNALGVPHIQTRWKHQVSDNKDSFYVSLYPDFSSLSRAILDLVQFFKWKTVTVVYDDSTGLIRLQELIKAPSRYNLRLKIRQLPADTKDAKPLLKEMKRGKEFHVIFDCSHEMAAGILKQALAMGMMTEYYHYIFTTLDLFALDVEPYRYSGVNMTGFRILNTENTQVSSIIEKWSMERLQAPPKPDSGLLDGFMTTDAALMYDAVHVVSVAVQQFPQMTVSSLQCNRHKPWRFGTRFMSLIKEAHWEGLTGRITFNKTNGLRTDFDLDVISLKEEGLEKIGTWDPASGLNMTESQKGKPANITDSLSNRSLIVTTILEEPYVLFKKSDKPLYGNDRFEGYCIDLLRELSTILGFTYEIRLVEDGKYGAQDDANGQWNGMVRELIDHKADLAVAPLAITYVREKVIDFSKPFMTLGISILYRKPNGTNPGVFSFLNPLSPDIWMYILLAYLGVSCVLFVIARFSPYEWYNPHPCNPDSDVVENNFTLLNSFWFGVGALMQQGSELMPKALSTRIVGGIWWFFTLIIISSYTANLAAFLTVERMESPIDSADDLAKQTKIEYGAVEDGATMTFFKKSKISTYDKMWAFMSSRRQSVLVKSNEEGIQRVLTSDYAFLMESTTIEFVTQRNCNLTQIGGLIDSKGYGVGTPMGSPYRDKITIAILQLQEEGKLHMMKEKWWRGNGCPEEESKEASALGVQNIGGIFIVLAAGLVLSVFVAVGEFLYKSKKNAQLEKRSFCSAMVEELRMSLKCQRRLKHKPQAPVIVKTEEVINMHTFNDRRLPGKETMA", "test": "Binding affinity to GluK2 receptor (unknown origin)"}, "[3]": {"molecular_target": "T1, Glutamate receptor ionotropic AMPA", "test": "Displacement of [3H]kainic acid from AMPA receptor (unknown origin)", "type": "protein-complex assay"}, "[4]": {"molecular_target": "Glutamate receptor ionotropic, kainate 1 (Homo sapiens, UniProt P39086)", "sequence (P39086 whole entry)": "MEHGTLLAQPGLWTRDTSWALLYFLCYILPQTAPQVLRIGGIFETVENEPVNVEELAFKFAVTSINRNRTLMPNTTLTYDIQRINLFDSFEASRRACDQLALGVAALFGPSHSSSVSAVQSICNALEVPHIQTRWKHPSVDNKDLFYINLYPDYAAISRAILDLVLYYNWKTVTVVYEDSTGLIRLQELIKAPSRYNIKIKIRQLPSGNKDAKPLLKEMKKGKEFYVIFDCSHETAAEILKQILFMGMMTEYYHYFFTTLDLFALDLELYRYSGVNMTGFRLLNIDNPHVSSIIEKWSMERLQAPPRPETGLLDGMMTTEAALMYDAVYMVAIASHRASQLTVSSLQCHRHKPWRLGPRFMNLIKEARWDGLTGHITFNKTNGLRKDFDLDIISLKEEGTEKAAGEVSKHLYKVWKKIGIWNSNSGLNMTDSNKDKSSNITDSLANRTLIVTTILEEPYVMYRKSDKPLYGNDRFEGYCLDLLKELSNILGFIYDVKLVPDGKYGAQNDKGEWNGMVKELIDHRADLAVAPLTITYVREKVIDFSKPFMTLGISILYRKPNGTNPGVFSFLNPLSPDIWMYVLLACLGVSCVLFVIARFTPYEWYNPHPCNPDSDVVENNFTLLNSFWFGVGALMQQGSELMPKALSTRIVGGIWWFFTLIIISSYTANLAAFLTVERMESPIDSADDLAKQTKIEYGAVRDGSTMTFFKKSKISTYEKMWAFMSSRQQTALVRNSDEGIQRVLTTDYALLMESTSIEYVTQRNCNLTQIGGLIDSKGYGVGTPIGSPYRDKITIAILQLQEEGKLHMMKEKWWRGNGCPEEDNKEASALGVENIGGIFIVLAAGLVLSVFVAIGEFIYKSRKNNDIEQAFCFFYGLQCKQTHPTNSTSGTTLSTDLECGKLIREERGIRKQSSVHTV", "test": "Binding affinity to GluK1 receptor (unknown origin)"}, "Glutamate receptor 2": {"molecular_target": "Glutamate receptor 2 (Homo sapiens, UniProt P42262)", "sequence (P42262 whole entry)": "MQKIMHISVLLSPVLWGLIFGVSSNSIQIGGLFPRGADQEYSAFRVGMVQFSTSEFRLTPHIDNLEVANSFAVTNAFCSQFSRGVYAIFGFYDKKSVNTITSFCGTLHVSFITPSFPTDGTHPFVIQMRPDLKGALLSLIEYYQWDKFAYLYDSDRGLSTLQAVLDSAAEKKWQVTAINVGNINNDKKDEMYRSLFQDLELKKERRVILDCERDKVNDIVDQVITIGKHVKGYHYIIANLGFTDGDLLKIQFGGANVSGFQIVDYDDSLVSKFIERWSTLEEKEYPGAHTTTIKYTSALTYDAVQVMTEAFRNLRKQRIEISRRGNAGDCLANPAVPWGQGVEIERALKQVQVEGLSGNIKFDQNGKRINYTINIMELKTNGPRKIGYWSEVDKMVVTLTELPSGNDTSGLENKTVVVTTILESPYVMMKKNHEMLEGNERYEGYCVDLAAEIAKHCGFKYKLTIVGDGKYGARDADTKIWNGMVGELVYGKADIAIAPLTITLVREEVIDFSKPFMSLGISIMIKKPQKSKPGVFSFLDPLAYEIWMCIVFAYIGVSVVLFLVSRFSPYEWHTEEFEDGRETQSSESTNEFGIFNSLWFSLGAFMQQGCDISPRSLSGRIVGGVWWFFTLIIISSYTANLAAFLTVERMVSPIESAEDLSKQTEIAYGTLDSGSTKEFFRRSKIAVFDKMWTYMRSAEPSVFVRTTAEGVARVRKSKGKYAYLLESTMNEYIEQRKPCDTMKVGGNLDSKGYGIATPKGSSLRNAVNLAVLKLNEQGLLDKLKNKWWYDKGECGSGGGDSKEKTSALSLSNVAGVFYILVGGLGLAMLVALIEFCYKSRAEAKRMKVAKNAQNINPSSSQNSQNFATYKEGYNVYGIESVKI", "test": "Binding affinity to GluA2 receptor (unknown origin)"}, "[5]": {"test": "Inhibition of ALR2 (unknown origin)", "set-up": "species or system Homo sapiens"}, "[6]": {"test": "Displacement of [3H]glycine from AMPA receptor (unknown origin)", "type": "protein-complex assay, Homo sapiens"}, "[7]": {"test": "Inhibition of ALR1 (unknown origin) relative to control", "set-up": "concentration or dose not given beside the values", "settings": "Homo sapiens; concentration not given here"}, "Escherichia coli": {"test_system": "Escherichia coli", "test": "Antibacterial activity against Escherichia coli", "type": "functional"}, "[8]": {"molecular_target": "Glutamate [NMDA] receptor", "test": "Displacement of [3H]DCKA from NMDA receptor (unknown origin)", "type": "protein-complex assay, Homo sapiens"}, "Staphylococcus aureus": {"test_system": "Staphylococcus aureus", "test": "Antibacterial activity against Staphylococcus aureus", "type": "functional"}, "Bacillus cereus": {"test_system": "Bacillus cereus", "test": "Antibacterial activity against Bacillus cereus", "type": "functional"}, "Aspergillus niger": {"test_system": "Aspergillus niger", "test": "Antifungal activity against Aspergillus niger", "type": "functional"}, "Candida albicans": {"test_system": "Candida albicans", "test": "Antifungal activity against Candida albicans", "type": "functional"}, "[9]": {"test_system": "Trichophyton mentagrophytes", "test": "Antimicrobial activity against Trichophyton mentagrophytes", "type": "functional"}, "HeLa": {"test_system": "HeLa", "test": "Antiproliferative activity against human HeLa cells", "type": "functional, cell-based"}, "MCF7": {"test_system": "MCF7", "test": "Antiproliferative activity against human MCF7 cells", "type": "functional, cell-based"}}}
{"smiles": "CCc1nc2cc(C(F)(F)F)ccc2[nH]c1=O", "values": [{"measurement": "MIC", "setting": "Pseudomonas aeruginosa", "value": 62.5, "unit": "µg/mL"}]}
{"smiles": "N[C@@H](Cc1ccc2[nH]c(=O)c(=O)[nH]c2c1)C(=O)O", "values": [{"measurement": "IC50", "setting": "[1]", "value": 203000, "unit": "nM"}, {"measurement": "Ki", "setting": "[2]", "value": 136000, "unit": "nM"}, {"measurement": "IC50", "setting": "[3]", "value": "> 300000", "unit": "nM"}, {"measurement": "Ki", "setting": "[4]", "value": "> 100000", "unit": "nM"}, {"measurement": "Ki", "setting": "Glutamate receptor 2", "value": "> 100000", "unit": "nM"}]}
{"smiles": "O=c1[nH]c2c([N+](=O)[O-])c(Cl)c(Cl)c([N+](=O)[O-])c2nc1Oc1ccccc1", "values": [{"measurement": "IC50", "setting": "[5]", "value": 1540, "unit": "nM"}]}
{"smiles": "NC(CNC(=O)C(=O)O)C(=O)O", "note": "(stereo not given)", "values": [{"measurement": "IC50", "setting": "[1]", "value": 1300, "unit": "nM"}]}
{"smiles": "CCOC(=O)c1nc2cc(F)ccc2[nH]c1=O", "values": [{"measurement": "MIC", "setting": "Pseudomonas aeruginosa", "value": 250, "unit": "µg/mL"}]}
{"smiles": "CCOC(=O)CN(C)Cc1c(CC)c([N+](=O)[O-])cc2nc(O)c(O)nc12", "values": [{"measurement": "IC50", "setting": "[1]", "value": 1590, "unit": "nM"}, {"measurement": "IC50", "setting": "[6]", "value": "> 10000", "unit": "nM"}]}
{"smiles": "CCOC(=O)c1nc2c(O)nc3cc([N+](=O)[O-])c(-n4ccc(C(=O)O)c4)cc3n2n1", "values": [{"measurement": "Ki", "setting": "[1]", "value": 68, "unit": "nM"}]}
{"smiles": "O=C(O)Cn1c(=O)c(Oc2ccc(Br)cc2)nc2cc(Br)ccc21", "values": [{"measurement": "IC50", "setting": "[5]", "value": 16.3, "unit": "nM"}, {"measurement": "inhibition", "setting": "[7]", "value": 25.6, "unit": "%"}]}
{"smiles": "O=C(Nn1c(=O)c(=O)[nH]c2cc(C#CCCO)ccc21)c1ccccc1", "values": [{"measurement": "Ki", "setting": "[4]", "value": 12700, "unit": "nM"}, {"measurement": "Ki", "setting": "Glutamate receptor 2", "value": "> 100000", "unit": "nM"}]}
{"smiles": "Nc1cc(Cl)cc2[nH]c(=O)c3nc(C(=O)O)nn3c12", "values": [{"measurement": "Ki", "setting": "[1]", "value": 3200, "unit": "nM"}, {"measurement": "IC50", "setting": "[3]", "value": 34100, "unit": "nM"}, {"measurement": "Ki", "setting": "[6]", "value": 160, "unit": "nM"}]}
{"smiles": "O=C(O)c1nc2ccc(Cl)cc2[nH]c1=O", "values": [{"measurement": "MIC", "setting": "Escherichia coli", "value": 125, "unit": "µg/mL"}]}
{"smiles": "O=C(O)C[C@H]1CCc2cc(Br)cc3[nH]c(=O)c(=O)n1c23", "values": [{"measurement": "Ki", "setting": "[8]", "value": 9.6, "unit": "nM"}]}
{"smiles": "C[C@H]1Cc2cc(Cl)cc3[nH]c(=O)c(=O)n(c23)C1CC(=O)Nc1ccccc1", "note": "(stereo not given in full)", "values": [{"measurement": "Ki", "setting": "[8]", "value": 3.1, "unit": "nM"}]}
{"smiles": "O=C(O)Cn1c(=O)c(Oc2ccc(Br)cc2)nc2ccc(F)cc21", "values": [{"measurement": "IC50", "setting": "[5]", "value": 11.4, "unit": "nM"}, {"measurement": "inhibition", "setting": "[7]", "value": 30.7, "unit": "%"}]}
{"smiles": "O=C(C[C@@H]1CCc2cc(Br)cc3[nH]c(=O)c(=O)n1c23)Nc1ccccc1", "values": [{"measurement": "Ki", "setting": "[8]", "value": 0.96, "unit": "nM"}]}
{"smiles": "NC(Cn1c(=O)c(=O)[nH]c2ccccc21)C(=O)O", "note": "(stereo not given)", "values": [{"measurement": "IC50", "setting": "[1]", "value": 690, "unit": "nM"}]}
{"smiles": "CCOC(=O)c1nc2cc(C(F)(F)F)ccc2[nH]c1=O", "values": [{"measurement": "MIC", "setting": "Escherichia coli", "value": 125, "unit": "µg/mL"}, {"measurement": "MIC", "setting": "Staphylococcus aureus", "value": 250, "unit": "µg/mL"}]}
{"smiles": "CCCCCCCCC[n+]1cccc(-c2nc(-c3ccccc3)c3c(=O)n(CCCCCC)c4ccccc4n23)c1.[I-]", "values": [{"measurement": "MBC", "setting": "Bacillus cereus", "value": 500, "unit": "µg/mL"}, {"measurement": "MIC", "setting": "Bacillus cereus", "value": 0.78, "unit": "µg/mL"}, {"measurement": "MBC", "setting": "Escherichia coli", "value": "> 500", "unit": "µg/mL"}, {"measurement": "MIC", "setting": "Escherichia coli", "value": "> 500", "unit": "µg/mL"}, {"measurement": "MBC", "setting": "Staphylococcus aureus", "value": 5, "unit": "µg/mL"}, {"measurement": "MIC", "setting": "Staphylococcus aureus", "value": 0.78, "unit": "µg/mL"}, {"measurement": "MBC", "setting": "Aspergillus niger", "value": "> 500", "unit": "µg/mL"}, {"measurement": "MIC", "setting": "Aspergillus niger", "value": "> 500", "unit": "µg/mL"}, {"measurement": "MBC", "setting": "Candida albicans", "value": 500, "unit": "µg/mL"}, {"measurement": "MIC", "setting": "Candida albicans", "value": 500, "unit": "µg/mL"}, {"measurement": "MBC", "setting": "Pseudomonas aeruginosa", "value": "> 500", "unit": "µg/mL"}, {"measurement": "MIC", "setting": "Pseudomonas aeruginosa", "value": "> 500", "unit": "µg/mL"}, {"measurement": "MBC", "setting": "[9]", "value": "> 500", "unit": "µg/mL"}, {"measurement": "MIC", "setting": "[9]", "value": "> 500", "unit": "µg/mL"}]}
{"smiles": "C[C@H]1Cc2cc(Br)cc3[nH]c(=O)c(=O)n(c23)C1CC(=O)Nc1ccccc1", "note": "(stereo not given in full)", "values": [{"measurement": "Ki", "setting": "[8]", "value": 3, "unit": "nM"}]}
{"smiles": "CCc1c([N+](=O)[O-])cc2nc(O)c(O)nc2c1CN(C)CC(=O)O", "values": [{"measurement": "IC50", "setting": "[1]", "value": 140, "unit": "nM"}, {"measurement": "IC50", "setting": "[6]", "value": 470, "unit": "nM"}]}
{"smiles": "CC[C@H]1Cc2cc(Br)cc3[nH]c(=O)c(=O)n(c23)C1CC(=O)O", "note": "(stereo not given in full)", "values": [{"measurement": "Ki", "setting": "[8]", "value": 1.4, "unit": "nM"}]}
{"smiles": "O=C(O)c1ccn(-c2cc3c(cc2[N+](=O)[O-])nc(O)c2nc(C(=O)O)nn23)c1", "values": [{"measurement": "Ki", "setting": "[1]", "value": 19, "unit": "nM"}]}
{"smiles": "COc1ccc(/C(=C(\\C#N)C(=O)NN)n2c(=O)c(O)nc3ccccc32)cc1", "values": [{"measurement": "IC50", "setting": "HeLa", "value": 8920, "unit": "nM"}, {"measurement": "IC50", "setting": "MCF7", "value": 2610, "unit": "nM"}]}
{"smiles": "CCc1c(Br)cc2nc(O)c(O)nc2c1CN(C)CC(=O)O", "values": [{"measurement": "IC50", "setting": "[1]", "value": 2320, "unit": "nM"}]}
